Experimental data published in patent US11732256B2, “Multivalent glycopeptides that tightly bind to target proteins” (Brandeis University, priority 2013, dated 2023).
*1 amine or outer side, *2 acyl side, *3 side chain or, on linkers, in order; H or OH if unused. [ ]: non-standard residue; d: D form. The star is where a group is joined. X1 = O=C([C@H](CCc1cn(C2CCC(OC3O[C@H](CO[C@H]4O[C@H](CO[C@H]5O[C@H](CO)[C@@H](O)[C@H](O)[C@@H]5O[C@H]5O[C@H](CO)[C@@H](O)[C@H](O)[C@@H]5O)[C@@H](O)[C@H](O[C@H]5O[C@H](CO)[C@@H](O)[C@H](O)[C@@H]5O[C@H]5O[C@H](CO)[C@@H](O)[C@H](O)[C@@H]5O)[C@@H]4O)[C@@H](O)[C@H](O[C@H]4O[C@H](CO)[C@@H](O)[C@H](O)[C@@H]4O[C@H]4O[C@H](CO)[C@@H](O)[C@H](O)[C@@H]4O[C@H]4O[C@H](CO)[C@@H](O)[C@H](O)[C@@H]4O)[C@@H]3O)CC2)nn1)N[*:1])[*:2]; For = O=C*

Tested on: HIV broadly neutralizing antibody 2G12
Test: Radioactive 2G12-glycopeptide binding assay with protein G magnetic beads (binding curve and KD determination)
Conditions: for Fmax [%]: Table 6 mutants/truncations, radioactive binding assay
Experimental: The sequences were obtained by cloning non-selected library DNA. […] FIG. 9B is an SDS-PAGE analysis of the click reaction of the non-selected peptides. Both peptides were transcribed and translated from PCR-amplified DNA in Pure System that contains 0.02 mg/mL T7 RNA polymerase and additional 1 mM each NTP. The peptides were labeled with 3H-histidine and the bands were visualized by fluorography.
For round 10 winners, 0.12-0.2 nM radioactive glycopeptides were incubated with 0, 0.25, 0.5, 1, 2, 4, 8, 16, 32 or 64 nM 2G12 in 40 μL of selection buffer at room temperature for 1 h. Then, the solution was added to 0.12 mg of pre-equilibrated Dynabeads Protein G and tumbled at room temperature for 30 min. The supernatant was removed and the beads were washed with 3×40 μL of selection buffer. The radioactivities of the supernatant and wash solutions were measured by liquid scintillation counting as unbound fractions. […] The beads were resuspended in 40 μL of selection buffer, heated at 70° C. for 30 min to elute the bound glycopeptides, chilled on ice for 5 min, and tumbled at room temperature for 10 min. The supernatant was removed, and the beads were washed with 40 μL of selection buffer and resuspended in 40 μL of selection buffer. The radioactivities of these solutions and suspensions were measured by liquid scintillation counting separately and the values were combined as apparent bound fractions. […] All experiments were done at least in triplicate. KDs were calculated as described in the footnote of Table 4 (below).

CC[C@H](C)[C@H](NC(=O)[C@H](CCCNC(=N)N)NC(=O)[C@H](Cc1c[nH]cn1)NC(=O)[C@H](Cc1ccccc1)NC(=O)[C@H](CC(C)C)NC(=O)[C@H](C)NC(=O)[C@H](CC(C)C)NC(=O)[C@H](C)NC(=O)[C@H](Cc1ccc(O)cc1)NC(=O)[C@H](CCc1cn(C2CCC(OC3O[C@H](CO[C@H]4O[C@H](CO[C@H]5O[C@H](CO)[C@@H](O)[C@H](O)[C@@H]5O[C@H]5O[C@H](CO)[C@@H](O)[C@H](O)[C@@H]5O)[C@@H](O)[C@H](O[C@H]5O[C@H](CO)[C@@H](O)[C@H](O)[C@@H]5O[C@H]5O[C@H](CO)[C@@H](O)[C@H](O)[C@@H]5O)[C@@H]4O)[C@@H](O)[C@H](O[C@H]4O[C@H](CO)[C@@H](O)[C@H](O)[C@@H]4O[C@H]4O[C@H](CO)[C@@H](O)[C@H](O)[C@@H]4O[C@H]4O[C@H](CO)[C@@H](O)[C@H](O)[C@@H]4O)[C@@H]3O)CC2)nn1)NC(=O)[C@H](CC(=O)O)NC(=O)[C@@H](NC(=O)[C@@H](NC(=O)[C@H](CCC(N)=O)NC(=O)[C@H](CCc1cn(C2CCC(OC3O[C@H](CO[C@H]4O[C@H](CO[C@H]5O[C@H](CO)[C@@H](O)[C@H](O)[C@@H]5O[C@H]5O[C@H](CO)[C@@H](O)[C@H](O)[C@@H]5O)[C@@H](O)[C@H](O[C@H]5O[C@H](CO)[C@@H](O)[C@H](O)[C@@H]5O[C@H]5O[C@H](CO)[C@@H](O)[C@H](O)[C@@H]5O)[C@@H]4O)[C@@H](O)[C@H](O[C@H]4O[C@H](CO)[C@@H](O)[C@H](O)[C@@H]4O[C@H]4O[C@H](CO)[C@@H](O)[C@H](O)[C@@H]4O[C@H]4O[C@H](CO)[C@@H](O)[C@H](O)[C@@H]4O)[C@@H]3O)CC2)nn1)NC(=O)[C@H](CCCCN)NC(=O)[C@H](CC(C)C)NC(=O)[C@H](C)NC(=O)[C@H](C)NC(=O)[C@H](CCc1cn(C2CCC(OC3O[C@H](CO[C@H]4O[C@H](CO[C@H]5O[C@H](CO)[C@@H](O)[C@H](O)[C@@H]5O[C@H]5O[C@H](CO)[C@@H](O)[C@H](O)[C@@H]5O)[C@@H](O)[C@H](O[C@H]5O[C@H](CO)[C@@H](O)[C@H](O)[C@@H]5O[C@H]5O[C@H](CO)[C@@H](O)[C@H](O)[C@@H]5O)[C@@H]4O)[C@@H](O)[C@H](O[C@H]4O[C@H](CO)[C@@H](O)[C@H](O)[C@@H]4O[C@H]4O[C@H](CO)[C@@H](O)[C@H](O)[C@@H]4O[C@H]4O[C@H](CO)[C@@H](O)[C@H](O)[C@@H]4O)[C@@H]3O)CC2)nn1)NC(=O)[C@H](CCc1cn(C2CCC(OC3O[C@H](CO[C@H]4O[C@H](CO[C@H]5O[C@H](CO)[C@@H](O)[C@H](O)[C@@H]5O[C@H]5O[C@H](CO)[C@@H](O)[C@H](O)[C@@H]5O)[C@@H](O)[C@H](O[C@H]5O[C@H](CO)[C@@H](O)[C@H](O)[C@@H]5O[C@H]5O[C@H](CO)[C@@H](O)[C@H](O)[C@@H]5O)[C@@H]4O)[C@@H](O)[C@H](O[C@H]4O[C@H](CO)[C@@H](O)[C@H](O)[C@@H]4O[C@H]4O[C@H](CO)[C@@H](O)[C@H](O)[C@@H]4O[C@H]4O[C@H](CO)[C@@H](O)[C@H](O)[C@@H]4O)[C@@H]3O)CC2)nn1)NC=O)C(C)C)[C@@H](C)O)C(=O)N[C@@H](CC(C)C)C(=O)NCC(=O)N[C@@H](CO)C(=O)NCC(=O)N[C@@H](CO)C(=O)N[C@@H](CC(C)C)C(=O)NCC(=O)N[C@@H](Cc1c[nH]cn1)C(=O)N[C@@H](Cc1c[nH]cn1)C(=O)N[C@@H](Cc1c[nH]cn1)C(=O)N[C@@H](Cc1c[nH]cn1)C(=O)N[C@@H](Cc1c[nH]cn1)C(=O)N[C@@H](Cc1c[nH]cn1)C(=O)N[C@@H](CCCNC(=N)N)C(=O)N[C@@H](CC(=O)O)C(=O)N[C@@H](Cc1ccc(O)cc1)C(=O)N[C@@H](CCCCN)C(=O)N[C@@H](CC(=O)O)C(=O)N[C@@H](CC(=O)O)C(=O)N[C@@H](CC(=O)O)C(=O)N[C@@H](CC(=O)O)C(=O)N[C@@H](CCCCN)C(=O)O (stereo partly shown) [Clone 10F2-Δ11, XXAALKXQVTDXYALALFHRIL]
Fmax [%]: 70%
2G12 binding after truncation (truncated clones): tight binding

For-[X1]PNCITQQDVR[X1]TSIPYTYTWPGSGSLGHHHHHHRDYKDDDDK-OH [Clone 10F3-Δ11, XPNCITQQDVRXTSIPYTYTWP]
Fmax [%]: 32%

XYKNIPSTTXNLYSKPXATVTTLKCKLNGNRIS [Clone 12G]
Kd (Table 4, radiolabeled ribosomally translated glycopeptide, varied 2G12, room temperature, ± standard error of curve fit): > 128 nM
